The record followed here is patent publication US20230111310A1, “CARBOXYLIC ACID DERIVATIVE-SUBSTITUTED IMINO ARYL COMPOUND, PREPARATION METHOD THEREFOR, HERBICIDAL COMPOSITION AND USE THEREOF” (Qingdao Kingagroot Chemical Compound Co., Ltd., priority 2020, published 2023).

Common to all, as to assay type: in vivo
For data set [1], the system named is Abutilon theophrasti. Briefly: Weeding effect in post-emergence stage. The settings on record: level of fresh weight growth control rate. The method in brief:
(§1)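 Compound, dissolved in acetone and diluted in water with Tween 80 plus methyl oleate EC (1.5 liter/ha), is sprayed onto 2-3 leaf potted plants. Rates span 7.5–500 g/ha. After 3 weeks of greenhouse culture, weeding effect is counted as the mean of triplicates.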

The test system of a further data set is Alopecurus japonicus. Nature of the data set: Weeding effect in post-emergence stage. The settings on record: level of fresh weight growth control rate. The method in brief: as §1
For the next data set, the system named is Digitaria sanguinalis. Briefly: Weeding effect in post-emergence stage. To be noted: level of fresh weight growth control rate. In outline:
as §1

The next data set concerns Eleusine indica. Briefly: Weeding effect in post-emergence stage. To be noted: for Weeding effect in post-emergence stage, Eleusine indica: level of fresh weight growth control rate. In outline: as §1
Data set [2] relates to Setaria viridis. Briefly: Weeding effect in post-emergence stage. To be noted: level of fresh weight growth control rate. The method in brief: as §1
Data set [3] has as its system Amaranthus retroflexus. Briefly: Weeding effect in post-emergence stage. To be noted: 7.5 g/ha, 3 weeks. In outline: as §1
The test system of another data set is Echinochloa crusgalli. Briefly: Weeding effect in post-emergence stage. The settings on record: for Weeding effect in post-emergence stage, Echinochloa crusgalli: level of fresh weight growth control rate. The method in brief: as §1
Data set [4] relates to Abutilon theophrasti. Briefly: Weeding effect in pre-emergence stage. The settings on record: 4 weeks. In outline: (§2)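 Pots were kept in the greenhouse for 4 weeks and then rated for growth control on activity-level criteria. Spraying took place immediately after sowing at application rates of 500 to 7.5 g/ha, using an acetone/tween 80 formulation diluted with water, on seeds under 0.5-2 cm of soil.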

Data set [5] relates to Amaranthus retroflexus. Nature of the data set: Weeding effect in pre-emergence stage. To be noted: 4 weeks. The method in brief: as §2
The subject of a further data set is Capsella bursa-pastoris. Briefly: Weeding effect in pre-emergence stage. To be noted: 4 weeks. The method in brief:
as §2

For another data set, the system named is Descurainia sophia. Nature of the data set: Weeding effect in pre-emergence stage. The settings on record: 4 weeks. In outline: as §2
In data set [6] the test system is Setaria viridis. Briefly: Weeding effect in pre-emergence stage. The settings on record: 4 weeks. The method in brief: as §2
The test system of the next data set is Veronica didyma Tenore. Briefly: Weeding effect in pre-emergence stage. To be noted: 4 weeks. The method in brief:
as §2

Another data set concerns Peanut. Nature of the data set: Pre-emergence stage, crop selectivity. The settings on record: 4 weeks. The method in brief:
as §2

A further data set deals with Soybeans. Briefly: Pre-emergence stage, crop selectivity. To be noted: 4 weeks. The method in brief: as §2
The subject of the next data set is corn. Nature of the data set: Pre-emergence stage, crop selectivity. The settings on record: 4 weeks. In outline:
as §2

A further data set deals with cotton. Nature of the data set: Pre-emergence stage, crop selectivity. To be noted: 4 weeks. The method in brief: as §2
For another data set, the system named is Leptochloa chinensis. Nature of the data set: Weed control effect evaluation in rice field. To be noted: rice field pot, 30 g/ha, 14 days after treatment. The text has this: (§3) The activity level criteria for plant damage (i.e., growth control rate) are as follows:
(§4) Rice field soil was loaded into a 1/1,000,000 ha pot. The seeds of Echinochloa crusgalli. Scirpus juncoides. Bidens tripartita L., Monochoria vaginalis, and Leptochloa chinensis were sowed and gently covered with soil, then left to stand still in greenhouse in the state of 0.5-1 cm of water storage. The tuber of Sagittaria trifolia was planted in the next day or 2 days later. It was kept at 3-4 cm of water storage thereafter. The weeds were treated by dripping the WP or SC water diluents prepared according to the common preparation method of the compounds of the present invention with pipette homogeneously to achieve specified effective amount when Echinochloa crusgalli. Scirpus juncoides, Bidens tripartita L., Monochoria vaginalis, and Leptochloa chinensis reached 0.5 leaf stage and Sagittaria trifolia reached the time point of primary leaf stage.
(§5) The fertility condition of Echinochloa crusgalli. Scirpus juncoides. Bidens tripartita L., Monochoria vaginalis, Leptochloa chinensis and Sagittaria trifolia 14 days after the treatment of the compound of the invention and the fertility condition of rice 21 days after the treatment of the compound of the invention respectively with the naked eye. Evaluate the weed control effect with the above activity standard level. Many compounds show excellent activity and selectivity.

In the next data set the test system is Monochoria vaginalis. Briefly: Weed control effect evaluation in rice field. To be noted: rice field pot, 30 g/ha, 14 days after treatment.
Description: as §3, §4, §5

The test system of a further data set is Scirpus juncoides. Briefly: Weed control effect evaluation in rice field. The settings on record: rice field pot, 30 g/ha, 14 days after treatment.
Description: as §3, §4, §5

Another data set relates to Rice. Briefly: Transplanted rice safety evaluation. The settings on record: transplanted japonica rice, 30 g/ha, 21 days after treatment. The procedure: as §3
In addition, the rice field soil that loaded into the 1/1,000,000 ha pot was leveled to keep water storage at 3-4 cm depth. The 5 leaf stage rice (japonica rice) was transplanted at 3 cm of transplanting depth the next day. The compound of the present invention was treated by the same way after 5 days of transplantation.
as §5

The subject of data set [7] is Echinochloa caudata Roshev. Briefly: Composition activity test, post-emergence foliage spray. The procedure:
(§6) are as follows, and the others were purchased from reagent companies. The technical materials were all dissolved in acetone and diluted with an aqueous solution containing 0.1% emulsifier Tween-80. The dilution is performed as required.
(§7) Weeds were cultivated by a pot culture method. […] Full and uniform weed seeds were selected, soaked in warm water at 25° C. for 6 hours, and germinated in a 28° C. biochemical incubator (darkness). The weed seeds that had just germinated were evenly placed on the surface of the soil and then covered with 0.5-1 cm soil according to the sizes of seeds.
(§8) The culture was carried out in a controllable sunlight greenhouse at 20 to 30° C., in natural light, and relative humidity of 57% to 72%.
(§9) 3 pots with 20 weed seeds per pot were treated in one treatment with 4 replications per treatment.
(§10) The agents were used for only once in the experiment. In the stage of weeds with 1.5-2 leaves, the weeds were thinned out to maintain 10 weeds per pot and 30 weeds for each treatment, then continued to be cultured to Conyza Canadensis 10 cm in height, other weeds 3-4 leaves stage and treated.
(§11) The well-cultured weeds were evenly placed on a platform with an area of 0.5 m^2, and a solution of agents was sprayed on the stems and leaves thereof by the 3WP-2000-type walking spray tower at a dosage of 450 kg/ha and at a spray pressure of 0.3 MPa. After all the solution was sprayed, the valve was closed. After 30 seconds, the door of the spray tower was opened, and the nutritional bowl was taken out. Then the valve was opened, and the spray tube was cleaned by spraying 50 ml of water. After the treatment, the weeds were routinely cultured in a greenhouse.
(§12) A method for investigating absolute number was employed, wherein whole seedlings of survival weeds were cut off with a blade along the soil surface, and the fresh weight of the weeds was weighed with an analytical balance. For dead weeds, the fresh weight thereof was zero.
(§13) The investigation was performed after 21 days of the treatment for only once.
(§14) An optimum ratio of the two active ingredients was determined by the actual control effect, characteristics of herbicides, and balance of a corresponding formula. Wherein, in the formula, X represented the fresh weight inhibition rate of the active ingredient A in a dosage of P, and Y represented the fresh weight inhibition rate of the active ingredient B in a dosage of Q. The statistical results were shown in the table 6.

The subject of the next data set is Malachium aquaticum. The data set is described as above. The settings on record: B 7.5 g a.i./ha. On the procedure: as §6, §7, §8, §9, §10, §11, §12, §13, §14
Setting [8] is: post-emergence, 7.5 g/ha, 3 weeks.

As for `COC(=O)[C@@H](C)O/N=C/c1cc(-n2c(=O)cc(C(F)(F)F)n(C)c2=O)c(F)cc1Cl` [194(R)], the “Weeding effect in post-emergence stage, Abutilon theophrasti” value with Abutilon theophrasti [1] (Dose 7.5 g/ha) and with Abutilon theophrasti [1] (Dose 15 g/ha) was 5 (Level 5: growth control rate is above 85%) throughout. The “Weeding effect in post-emergence stage, Alopecurus japonicus” value in the data set with Alopecurus japonicus (Dose 7.5 g/ha) and with Alopecurus japonicus (Dose 15 g/ha) was 5 (Level 5: growth control rate is above 85%) in each case. The “Weeding effect in post-emergence stage, Digitaria sanguinalis” value with Digitaria sanguinalis (Dose 7.5 g/ha) and with Digitaria sanguinalis (Dose 15 g/ha) was 5 (Level 5: growth control rate is above 85%) each time. The “Weeding effect in post-emergence stage, Eleusine indica” value in the data set with Eleusine indica (Dose 7.5 g/ha) and in the data set with Eleusine indica (Dose 15 g/ha) was 5 (Level 5: growth control rate is above 85%) in each case. Moreover, the “activity level (growth control rate) Eleusine indica” value in the data set on Eleusine indica (setting [8]) is 5 (Level 5: growth control rate is above 85%). In addition, the “Weeding effect in post-emergence stage, Setaria viridis” value with Setaria viridis [2] (Dose 7.5 g/ha) and with Setaria viridis [2] (Dose 15 g/ha) was 5 (Level 5: growth control rate is above 85%) in each case. Further, the “activity level (growth control rate) Amaranthus retroflexus” value with Amaranthus retroflexus [3], in the data set with Amaranthus retroflexus [5] (15 g/ha), with Amaranthus retroflexus [5] (30 g/ha) and with Amaranthus retroflexus [5] (60 g/ha) was 5 (Level 5: growth control rate is above 85%) in each case. In addition, the “Weeding effect in post-emergence stage, Echinochloa crusgalli” value in the data set with Echinochloa crusgalli (Dose 7.5 g/ha) and with Echinochloa crusgalli (Dose 15 g/ha) was 5 (Level 5: growth control rate is above 85%) each time. The “activity level (growth control rate) Echinochloa crusgalli” value with Echinochloa crusgalli (setting [8]) was 5 (Level 5: growth control rate is above 85%). Besides, the “activity level (growth control rate) Abutilon theophrasti” value with Abutilon theophrasti [4] (15 g/ha), in the data set with Abutilon theophrasti [4] (30 g/ha) and with Abutilon theophrasti [4] (60 g/ha) was 5 (Level 5: growth control rate is above 85%) each time. The “activity level (growth control rate) Capsella bursa-pastoris” value with Capsella bursa-pastoris (15 g/ha), in the data set on Capsella bursa-pastoris (30 g/ha) and in the data set with Capsella bursa-pastoris (60 g/ha) was 5 (Level 5: growth control rate is above 85%) throughout. In addition, the “activity level (growth control rate) Descurainia sophia” value with Descurainia sophia (15 g/ha), with Descurainia sophia (30 g/ha) and in the data set on Descurainia sophia (60 g/ha) was 5 (Level 5: growth control rate is above 85%) in each case. Besides, the “activity level (growth control rate) Setaria viridis” value with Setaria viridis [6] (15 g/ha), with Setaria viridis [6] (30 g/ha) and with Setaria viridis [6] (60 g/ha) was 5 (Level 5: growth control rate is above 85%) in each case. The “activity level (growth control rate) Veronica didyma Tenore” value in the data set on Veronica didyma Tenore (15 g/ha), with Veronica didyma Tenore (30 g/ha) and in the data set on Veronica didyma Tenore (60 g/ha) was 5 (Level 5: growth control rate is above 85%) each time. For the same compound, the “plant damage level Peanut” value in the data set with Peanut (15 g/ha), in the data set on Peanut (30 g/ha) and in the data set on Peanut (60 g/ha) was 0 (Level 0: growth control rate is less than 5%) each time. Further, the “plant damage level Soybeans” value with Soybeans (15 g/ha), in the data set on Soybeans (30 g/ha) and in the data set on Soybeans (60 g/ha) was 0 (Level 0: growth control rate is less than 5%) each time. Besides, the “plant damage level Corn” value with corn (15 g/ha), in the data set with corn (30 g/ha) and in the data set on corn (60 g/ha) was 0 (Level 0: growth control rate is less than 5%) throughout. In addition, the “plant damage level Cotton” value in the data set on cotton (15 g/ha), with cotton (30 g/ha) and in the data set with cotton (60 g/ha) was 0 (Level 0: growth control rate is less than 5%) each time. The “activity level (weed control effect) Leptochloa chinensis” value in the data set with Leptochloa chinensis was 5 (Level 5: growth control rate is above 85%). The “activity level (weed control effect) Monochoria vaginalis” value with Monochoria vaginalis is listed as 5 (Level 5: growth control rate is above 85%). Further, in the data set on Scirpus juncoides, the “activity level (weed control effect) Scirpus juncoides” value was 5 (Level 5: growth control rate is above 85%). In addition, in the data set on Rice, the “plant damage level Rice” value is 0 (Level 0: growth control rate is less than 5%).

`CCC[S@@+]([O-])c1c(C(F)(F)F)ccc(C(=O)Nc2nnc(C)o2)c1F` [Cpd B1]: the “Control effect (%) of B applied alone (B)” value (shortened to “Control effect (%)”) in data set [7] (B 7.5 g a.i./ha) stood at 47.8%.

In the case of `Cn1[nH]c(C2CC2)c(C(=O)c2ccc(C(F)(F)F)c(N3CCCCC3=O)c2Cl)c1=O` [huanbifucaotong], in data set [7] (B 60 g a.i./ha), the “Control effect (%)” value stood at 27.4%.

In the case of `CCOC(=O)c1cnn(C)c1S(=O)(=O)NC(=O)Nc1nc(OC)cc(OC)n1` [pyrazosulfuron-ethyl, reference compound], the “activity level (weed control effect) Leptochloa chinensis” value in the data set on Leptochloa chinensis is 2 (Level 2: growth control rate is greater than or equal to 20% and less than 40%). In addition, the “activity level (weed control effect) Monochoria vaginalis” value in the data set with Monochoria vaginalis is 2 (Level 2: growth control rate is greater than or equal to 20% and less than 40%). Besides, in the data set on Scirpus juncoides, the “activity level (weed control effect) Scirpus juncoides” value was 1 (Level 1: growth control rate is greater than or equal to 5% and less than 20%). Besides, the “plant damage level Rice” value with Rice is 1 (Level 1: growth control rate is greater than or equal to 5% and less than 20%). Further, the “Control effect (%)” value in the data set on Malachium aquaticum is 35.7%.
